Assay results from EPA's CvTdb concentration-time database.
Several values for one entry are separate records, joined by “and”; a condition that tells them apart may be missing. Equal values may be shown once.

What was measured:
[1] = system: Rat; assay: concentration in plasma after dosing; conditions: dosed: Phenolphthalein, 25 mg/kg, iv, F344
[2] = system: rat; assay: concentration in blood after dosing; conditions: dosed: furan, inhalation, duration: 4 hr, male, Fischer-344
[3] = system: rat; assay: amount in expired air after dosing (umol); conditions: dosed: methanol, 100 mg/kg, iv, male, CDF(F344)/CrlBR
[4] = system: Rat; assay: concentration in plasma after dosing; conditions: dosed: Phenolphthalein, 25 mg/kg, iv, Male, F344
[5] = system: Rat; assay: concentration in plasma after dosing; conditions: dosed: Phenolphthalein, 25 mg/kg, iv, Female, F344
[6] = system: Rat; assay: concentration in plasma after dosing; conditions: dosed: Phenolphthalein, 25 mg/kg, iv, Male, F344; remark: listed apart in the source
[7] = system: Rat; assay: concentration in plasma after dosing; conditions: 16 h; dosed: Phenolphthalein; 25 mg/kg; iv; Female; F344
[8] = system: Rat; assay: concentration in plasma after dosing; conditions: dosed: Phenolphthalein, 25 mg/kg, iv, Female, F344; remark: listed apart in the source
[9] = system: Rat; assay: concentration in plasma after dosing; conditions: dosed: Phenolphthalein, 25 mg/kg, iv, Male, F344; remark: listed apart in the source
[10] = system: Rat; assay: concentration in plasma after dosing; conditions: dosed: Phenolphthalein, 25 mg/kg, iv, Female, F344; remark: listed apart in the source
[11] = system: Rat; assay: concentration in plasma after dosing; conditions: 16 h; dosed: Phenolphthalein; 25 mg/kg; iv; Male; F344
[12] = system: Rat; assay: concentration in plasma after dosing; conditions: dosed: Phenolphthalein, 25 mg/kg, iv, Female, F344; remark: listed apart in the source
[13] = system: Rat; assay: concentration in plasma after dosing; conditions: dosed: Phenolphthalein, 25 mg/kg, iv, Female, F344; remark: listed apart in the source
[14] = system: Rat; assay: concentration in plasma after dosing; conditions: 16 h; dosed: Phenolphthalein; 25 mg/kg; iv; Male; F344; remark: listed apart in the source
[15] = system: Rat; assay: concentration in plasma after dosing; conditions: dosed: Phenolphthalein, 25 mg/kg, iv, Male, F344; remark: listed apart in the source
[16] = system: Rat; assay: concentration in plasma after dosing; conditions: 12 h; dosed: Phenolphthalein; 25 mg/kg; iv; Female; F344
[17] = system: Rat; assay: concentration in plasma after dosing; conditions: dosed: Phenolphthalein, 25 mg/kg, iv, Male, F344; remark: listed apart in the source
[18] = system: Rat; assay: concentration in plasma after dosing; conditions: dosed: Phenolphthalein, 25 mg/kg, iv, Female, F344; remark: listed apart in the source
[19] = system: Rat; assay: concentration in plasma after dosing; conditions: dosed: Phenolphthalein, 25 mg/kg, iv, Male, F344; remark: listed apart in the source
[20] = system: Rat; assay: concentration in plasma after dosing; conditions: dosed: Phenolphthalein, 25 mg/kg, iv, Female, F344; remark: listed apart in the source
[21] = system: Rat; assay: concentration in plasma after dosing; conditions: dosed: Phenolphthalein, 25 mg/kg, iv, Female, F344; remark: listed apart in the source
[22] = system: Rat; assay: concentration in plasma after dosing; conditions: dosed: Phenolphthalein, 25 mg/kg, iv, Female, F344; remark: listed apart in the source
[23] = system: Rat; assay: concentration in plasma after dosing; conditions: dosed: Phenolphthalein, 25 mg/kg, iv, Male, F344; remark: listed apart in the source
[24] = system: Rat; assay: concentration in plasma after dosing; conditions: dosed: Phenolphthalein, 25 mg/kg, iv, Male, F344; remark: listed apart in the source
[25] = system: Rat; assay: concentration in plasma after dosing; conditions: dosed: Phenolphthalein, 25 mg/kg, iv, Female, F344; remark: listed apart in the source
[26] = system: Rat; assay: concentration in plasma after dosing; conditions: dosed: Phenolphthalein, 25 mg/kg, iv, Male, F344; remark: listed apart in the source
[27] = system: Rat; assay: concentration in plasma after dosing; conditions: dosed: Phenolphthalein, 25 mg/kg, iv, Male, F344; remark: listed apart in the source
[28] = system: Rat; assay: concentration in plasma after dosing; conditions: 16 h; dosed: Phenolphthalein; 25 mg/kg; iv; Female; F344; remark: listed apart in the source
[29] = system: Rat; assay: concentration in plasma after dosing; conditions: dosed: Phenolphthalein, 25 mg/kg, iv, Male, F344; remark: listed apart in the source
[30] = system: Rat; assay: concentration in plasma after dosing; conditions: dosed: Phenolphthalein, 25 mg/kg, iv, Male, F344; remark: listed apart in the source
[31] = system: Rat; assay: concentration in plasma after dosing; conditions: dosed: Phenolphthalein, 25 mg/kg, iv, Female, F344; remark: listed apart in the source
[32] = system: Rat; assay: concentration in plasma after dosing; conditions: dosed: Phenolphthalein, 25 mg/kg, iv, Female, F344; remark: listed apart in the source
[33] = system: Rat; assay: concentration in plasma after dosing; conditions: dosed: Phenolphthalein, 25 mg/kg, iv, Male, F344; remark: listed apart in the source
[34] = system: Rat; assay: concentration in plasma after dosing; conditions: dosed: Phenolphthalein, 25 mg/kg, iv, Female, F344; remark: listed apart in the source

O=C1OC(c2ccc(O)cc2)(c2ccc(O[C@@H]3O[C@H](C(=O)O)[C@@H](O)[C@H](O)[C@H]3O)cc2)c2ccccc21 (stereo not given in full) [Phenolphthalein glucuronide]
[1], Male
Conditions | concentration in plasma [µg/mL]
2.5 min | 6.98
20 h | 8.9

c1ccoc1 [furan]
[2]
Conditions | concentration in blood
0.1053 h, 52 ppm | 0.111 µg/mL
0.1054 h, 52 ppm | 0.093 µg/mL
0.1745 h, 107 ppm | 0.142 µg/mL
0.3024 h, 107 ppm | 0.101 µg/mL
0.3025 h, 107 ppm | 0.0884 µg/mL
0.5398 h, 208 ppm | 0.0984 µg/mL
0.54 h, 208 ppm | 0.0823 µg/mL
0.7855 h, 208 ppm | 0.047 µg/mL
0.7856 h, 208 ppm | 0.0412 µg/mL
0.7857 h, 208 ppm | 0.0357 µg/mL
130 s, 107 ppm | 0.387 µg/mL and 0.348 µg/mL
131 s, 107 ppm | 0.309 µg/mL
132 s, 208 ppm | 0.945 µg/mL
133 s, 208 ppm | 0.772 µg/mL and 0.654 µg/mL

O=C=O [carbon dioxide]
[3]
Conditions | amount in expired air
0.2199 h | 1.76
0.5362 h | 6.28
0.9412 h | 13.1
1.448 h | 25.8
1.93 h | 37.7
2.933 h | 81.5
4.445 h | 151
5.995 h | 221
8.01 h | 278
10.01 h | 322
12.03 h | 335
15.08 h | 344

O=C1OC(c2ccc(O)cc2)(c2ccc(O[C@@H]3O[C@H](C(=O)O)[C@@H](O)[C@H](O)[C@H]3O)cc2)c2ccccc21 (stereo not given in full) [Phenolphthalein Glucuronide]
Conditions | concentration in plasma [µg/mL]
[4], 2.5 min | 2.32
[4], 20 h | 8.55
[5], 5 min | 3.25
[5], 24 h | 5.14
[6], 2 h | 7.95
[6], 8 h | 9.11
[8], 4 h | 18.4
[8], 7 h | 19.5
[9], 5 h | 10.9
[9], 10 h | 10.7
[10], 2 h | 16.3
[10], 8 h | 22.7
[12], 5 min | 69
[12], 24 h | 14.7
[13], 2.5 min | 10.4
[13], 20 h | 8.67
[15], 5 min | 23.7
[15], 24 h | 6.1
[17], 4 h | 8.24
[17], 7 h | 14.4
[18], 2 h | 14.6
[18], 8 h | 17
[19], 5 min | 21.1
[19], 24 h | 5.33
[20], 3 h | 39
[20], 12 h | 18
[21], 4 h | 14
[21], 7 h | 13.7
[22], 1 h | 9.08
[22], 6 h | 15.2
[23], 1 h | 18.7
[23], 6 h | 10.7
[24], 4 h | 23.3
[24], 7 h | 13.1
[25], 2.5 min | 15.1
[25], 20 h | 9.5
[26], 2 h | 22.6
[26], 8 h | 18.6
[27], 3 h | 6.59
[27], 12 h | 17.3
[29], 5 h | 8.04
[29], 10 h | 11.3
[30], 3 h | 32
[30], 12 h | 10.5
[31], 5 h | 16.5
[31], 10 h | 11.3
[32], 5 h | 16.9
[32], 10 h | 13.3
[33], 1 h | 19
[33], 6 h | 35.9
[34], 1 h | 22.3
[34], 6 h | 8.56

Conditions | concentration in plasma [µg/mL]
[7] | 8.15
[11] | 7.18
[14] | 37.5
[16] | 14.8
[28] | 21.5

concentration in plasma [µg/mL], [1]
Conditions | Female | Male
1 h | 6.22 | 13.2
2 h | 22.8 | 1.49
2.5 min | 26.6 | 4.74
3 h | 47.9 | 7.19
4 h | 50.6 | 4
5 h | 17.9 | 2.27
5 min | 49 | 22.3
6 h | 18.7 | 11.8
7 h | 35.3 | 4.35
8 h | 16.9 | 3.65
10 h | 11.9 | 5.44
12 h | 24.9 | 8.24
16 h | 8.19 | 9.21
20 h | 16.2 | 8.08
24 h | 9.27 | 6.21
